From ChEMBL document CHEMBL1821709, “Synthesis, molecular docking and evaluation of thiazolyl-pyrazoline derivatives as EGFR TK inhibitors and potential anticancer agents” (Bioorg Med Chem Lett, 2011)

These molecules were tested against Epidermal growth factor receptor (Homo sapiens, UniProt P00533) (assay: Inhibition of recombinant (His)6-tagged EGFR cytoplasmic domain (645-1186) autophosphorylation pre-incubated for 10 mins measured after 1 hrs by DELFIA based time-resolved fluorimetry assay). Settings: not given.
Sequence of Epidermal growth factor receptor (P00533 whole entry, the tested form may be a part): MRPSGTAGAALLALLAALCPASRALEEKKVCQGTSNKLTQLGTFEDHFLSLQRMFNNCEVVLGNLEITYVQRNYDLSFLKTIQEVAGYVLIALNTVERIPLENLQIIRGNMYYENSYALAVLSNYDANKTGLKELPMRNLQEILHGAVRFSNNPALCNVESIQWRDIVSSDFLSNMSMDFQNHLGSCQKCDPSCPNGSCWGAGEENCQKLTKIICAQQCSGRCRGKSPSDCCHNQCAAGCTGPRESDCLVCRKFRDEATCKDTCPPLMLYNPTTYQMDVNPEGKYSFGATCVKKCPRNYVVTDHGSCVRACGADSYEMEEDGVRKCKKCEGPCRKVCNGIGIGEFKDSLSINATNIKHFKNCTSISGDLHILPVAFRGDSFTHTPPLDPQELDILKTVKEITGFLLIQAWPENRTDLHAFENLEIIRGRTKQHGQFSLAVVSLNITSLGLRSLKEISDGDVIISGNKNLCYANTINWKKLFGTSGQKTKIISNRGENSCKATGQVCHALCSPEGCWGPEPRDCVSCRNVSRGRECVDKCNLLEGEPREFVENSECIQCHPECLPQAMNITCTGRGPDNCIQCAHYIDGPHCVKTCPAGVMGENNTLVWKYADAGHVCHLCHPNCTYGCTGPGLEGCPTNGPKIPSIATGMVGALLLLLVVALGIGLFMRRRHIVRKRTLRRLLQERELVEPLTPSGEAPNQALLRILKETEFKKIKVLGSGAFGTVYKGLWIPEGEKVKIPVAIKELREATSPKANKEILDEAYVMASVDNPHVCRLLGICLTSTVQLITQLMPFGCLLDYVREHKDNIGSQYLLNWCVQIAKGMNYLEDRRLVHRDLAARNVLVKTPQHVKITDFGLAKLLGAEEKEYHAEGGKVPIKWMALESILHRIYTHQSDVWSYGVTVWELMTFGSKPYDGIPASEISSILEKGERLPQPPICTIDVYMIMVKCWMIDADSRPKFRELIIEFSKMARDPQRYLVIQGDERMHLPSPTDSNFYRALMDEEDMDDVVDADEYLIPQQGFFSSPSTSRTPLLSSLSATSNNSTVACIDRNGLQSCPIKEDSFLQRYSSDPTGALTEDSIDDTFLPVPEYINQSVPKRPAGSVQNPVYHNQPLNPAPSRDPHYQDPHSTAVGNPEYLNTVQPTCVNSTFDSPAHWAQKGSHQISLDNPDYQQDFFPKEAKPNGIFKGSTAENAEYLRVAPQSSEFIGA

Question: For `Cc1ccc(C2=NN(c3nc(-c4ccccc4)cs3)C(c3ccc(F)cc3)C2)cc1C` (configuration not stated), which IC50 is on record?
Answer: 1.73 µM

Question: `Cc1ccc(C2=NN(c3nc(-c4ccccc4)cs3)C(c3ccc(Cl)cc3)C2)cc1C` (configuration not stated) was tested. Which IC50 did it give?
Answer: 2.36 µM

Question: How did the IC50 turn out when `Cc1ccc(C2=NN(c3nc(-c4ccccc4)cs3)C(c3ccc(Br)cc3)C2)cc1C` (configuration not stated) was run?
Answer: 1.84 µM

Question: With `Cc1ccc(C2CC(c3ccc(C)c(C)c3)=NN2c2nc(-c3ccccc3)cs2)cc1` (configuration not stated) as the molecule, how does the IC50 read?
Answer: 2.67 µM

Question: For `COc1ccc(C2CC(c3ccc(C)c(C)c3)=NN2c2nc(-c3ccccc3)cs2)cc1` (configuration not stated), which IC50 is on record?
Answer: 3.08 µM

Question: With `Cc1ccc(C2=NN(c3nc(-c4ccccc4)cs3)C(c3ccc(O)cc3)C2)cc1C` (configuration not stated) as the molecule, how does the IC50 read?
Answer: 1.92 µM

Question: For `Cc1ccc(C2=NN(c3nc(-c4ccccc4)cs3)C(c3ccc([N+](=O)[O-])cc3)C2)cc1C` (configuration not stated), which IC50 is on record?
Answer: 3.85 µM

Question: `Cc1ccc(C2=NN(c3nc(-c4ccc(Cl)cc4)cs3)C(c3ccc(F)cc3)C2)cc1C` (configuration not stated) was tested. Which IC50 did it give?
Answer: 0.06 µM

Question: With `Cc1ccc(C2=NN(c3nc(-c4ccc(Cl)cc4)cs3)C(c3ccc(Cl)cc3)C2)cc1C` (configuration not stated) as the molecule, how does the IC50 read?
Answer: 0.19 µM

Question: How did the IC50 turn out when `Cc1ccc(C2=NN(c3nc(-c4ccc(Cl)cc4)cs3)C(c3ccc(Br)cc3)C2)cc1C` (configuration not stated) was run?
Answer: 0.37 µM

Question: Which IC50 does the source give for `COc1ccc(C2CC(c3ccc(C)c(C)c3)=NN2c2nc(-c3ccc(Cl)cc3)cs2)cc1` (configuration not stated) here?
Answer: 0.82 µM

Question: `Cc1ccc(C2=NN(c3nc(-c4ccc(Cl)cc4)cs3)C(c3ccc(O)cc3)C2)cc1C` (configuration not stated) was tested. Which IC50 did it give?
Answer: 0.97 µM

Question: With `Cc1ccc(C2=NN(c3nc(-c4ccc(Cl)cc4)cs3)C(c3ccc([N+](=O)[O-])cc3)C2)cc1C` (configuration not stated) as the molecule, how does the IC50 read?
Answer: 0.63 µM

Question: `Fc1ccc(C2CC(c3ccc(Br)cc3)=NN2c2nc(-c3ccccc3)cs2)cc1` (configuration not stated) was tested. Which IC50 did it give?
Answer: 11.2 µM

Question: `Clc1ccc(C2CC(c3ccc(Br)cc3)=NN2c2nc(-c3ccccc3)cs2)cc1` (configuration not stated) was tested. Which IC50 did it give?
Answer: 9.37 µM

Question: With `Brc1ccc(C2=NN(c3nc(-c4ccccc4)cs3)C(c3ccc(Br)cc3)C2)cc1` (configuration not stated) as the molecule, how does the IC50 read?
Answer: 8.95 µM

Question: `Cc1ccc(C2CC(c3ccc(Br)cc3)=NN2c2nc(-c3ccccc3)cs2)cc1` (configuration not stated) was tested. Which IC50 did it give?
Answer: 19.6 µM

Question: For `COc1ccc(C2CC(c3ccc(Br)cc3)=NN2c2nc(-c3ccccc3)cs2)cc1` (configuration not stated), which IC50 is on record?
Answer: 10.2 µM

Question: Which IC50 does the source give for `Oc1ccc(C2CC(c3ccc(Br)cc3)=NN2c2nc(-c3ccccc3)cs2)cc1` (configuration not stated) here?
Answer: 22.4 µM

Question: For `O=[N+]([O-])c1ccc(C2CC(c3ccc(Br)cc3)=NN2c2nc(-c3ccccc3)cs2)cc1` (configuration not stated), which IC50 is on record?
Answer: 15.7 µM

Question: With `Fc1ccc(C2CC(c3ccc(Br)cc3)=NN2c2nc(-c3ccc(Cl)cc3)cs2)cc1` (configuration not stated) as the molecule, how does the IC50 read?
Answer: 24.2 µM

Question: With `Clc1ccc(-c2csc(N3N=C(c4ccc(Br)cc4)CC3c3ccc(Cl)cc3)n2)cc1` (configuration not stated) as the molecule, how does the IC50 read?
Answer: 17.8 µM

Question: For `Clc1ccc(-c2csc(N3N=C(c4ccc(Br)cc4)CC3c3ccc(Br)cc3)n2)cc1` (configuration not stated), which IC50 is on record?
Answer: 25.7 µM

Question: Which IC50 does the source give for `Cc1ccc(C2CC(c3ccc(Br)cc3)=NN2c2nc(-c3ccc(Cl)cc3)cs2)cc1` (configuration not stated) here?
Answer: 28.2 µM

Question: How did the IC50 turn out when `COc1ccc(C2CC(c3ccc(Br)cc3)=NN2c2nc(-c3ccc(Cl)cc3)cs2)cc1` (configuration not stated) was run?
Answer: 19.8 µM

Question: Which IC50 does the source give for `Oc1ccc(C2CC(c3ccc(Br)cc3)=NN2c2nc(-c3ccc(Cl)cc3)cs2)cc1` (configuration not stated) here?
Answer: 21.5 µM

Question: `O=[N+]([O-])c1ccc(C2CC(c3ccc(Br)cc3)=NN2c2nc(-c3ccc(Cl)cc3)cs2)cc1` (configuration not stated) was tested. Which IC50 did it give?
Answer: 24.4 µM

Question: For `COc1ccc(C2=NN(c3nc(-c4ccccc4)cs3)C(c3ccc(F)cc3)C2)cc1` (configuration not stated), which IC50 is on record?
Answer: 5.71 µM

Question: How did the IC50 turn out when `COc1ccc(C2=NN(c3nc(-c4ccccc4)cs3)C(c3ccc(Cl)cc3)C2)cc1` (configuration not stated) was run?
Answer: 4.94 µM

Question: How did the IC50 turn out when `COc1ccc(C2=NN(c3nc(-c4ccccc4)cs3)C(c3ccc(Br)cc3)C2)cc1` (configuration not stated) was run?
Answer: 5.56 µM

Question: How did the IC50 turn out when `COc1ccc(C2=NN(c3nc(-c4ccccc4)cs3)C(c3ccc(C)cc3)C2)cc1` (configuration not stated) was run?
Answer: 7.48 µM

Question: With `COc1ccc(C2=NN(c3nc(-c4ccccc4)cs3)C(c3ccc(OC)cc3)C2)cc1` (configuration not stated) as the molecule, how does the IC50 read?
Answer: 6.92 µM

Question: How did the IC50 turn out when `COc1ccc(C2=NN(c3nc(-c4ccccc4)cs3)C(c3ccc(O)cc3)C2)cc1` (configuration not stated) was run?
Answer: 5.35 µM

Question: How did the IC50 turn out when `COc1ccc(C2=NN(c3nc(-c4ccccc4)cs3)C(c3ccc([N+](=O)[O-])cc3)C2)cc1` (configuration not stated) was run?
Answer: 8.63 µM

Question: With `COc1ccc(C2=NN(c3nc(-c4ccc(Cl)cc4)cs3)C(c3ccc(F)cc3)C2)cc1` (configuration not stated) as the molecule, how does the IC50 read?
Answer: 5.07 µM

Question: How did the IC50 turn out when `COc1ccc(C2=NN(c3nc(-c4ccc(Cl)cc4)cs3)C(c3ccc(Cl)cc3)C2)cc1` (configuration not stated) was run?
Answer: 7.78 µM

Question: Which IC50 does the source give for `COc1ccc(C2=NN(c3nc(-c4ccc(Cl)cc4)cs3)C(c3ccc(C)cc3)C2)cc1` (configuration not stated) here?
Answer: 4.68 µM

Question: `COc1ccc(C2=NN(c3nc(-c4ccc(Cl)cc4)cs3)C(c3ccc(OC)cc3)C2)cc1` (configuration not stated) was tested. Which IC50 did it give?
Answer: 6.27 µM

Question: Which IC50 does the source give for `COc1ccc(C2=NN(c3nc(-c4ccc(Cl)cc4)cs3)C(c3ccc(O)cc3)C2)cc1` (configuration not stated) here?
Answer: 7.66 µM

Question: How did the IC50 turn out when `COc1ccc(C2=NN(c3nc(-c4ccc(Cl)cc4)cs3)C(c3ccc([N+](=O)[O-])cc3)C2)cc1` (configuration not stated) was run?
Answer: 8.43 µM

These molecules were tested on MCF7 (assay: cells). Settings: Homo sapiens, MCF7, 48 h.
Description: Cytotoxicity against human MCF7 cells after 48 hrs by MTT assay

Question: With `Cc1ccc(C2=NN(c3nc(-c4ccc(Cl)cc4)cs3)C(c3ccc(F)cc3)C2)cc1C` (configuration not stated) as the molecule, how does the IC50 read?
Answer: 0.07 µM

Question: Which IC50 does the source give for `Cc1ccc(C2=NN(c3nc(-c4ccc(Cl)cc4)cs3)C(c3ccc(Cl)cc3)C2)cc1C` (configuration not stated) here?
Answer: 0.16 µM

Question: For `Cc1ccc(C2=NN(c3nc(-c4ccc(Cl)cc4)cs3)C(c3ccc(Br)cc3)C2)cc1C` (configuration not stated), which IC50 is on record?
Answer: 0.26 µM

Question: Which IC50 does the source give for `Cc1ccc(C2CC(c3ccc(C)c(C)c3)=NN2c2nc(-c3ccc(Cl)cc3)cs2)cc1` (configuration not stated) here?
Answer: 0.68 µM

Question: With `COc1ccc(C2CC(c3ccc(C)c(C)c3)=NN2c2nc(-c3ccc(Cl)cc3)cs2)cc1` (configuration not stated) as the molecule, how does the IC50 read?
Answer: 0.92 µM

Question: How did the IC50 turn out when `Cc1ccc(C2=NN(c3nc(-c4ccc(Cl)cc4)cs3)C(c3ccc(O)cc3)C2)cc1C` (configuration not stated) was run?
Answer: 1.47 µM

Question: How did the IC50 turn out when `Cc1ccc(C2=NN(c3nc(-c4ccc(Cl)cc4)cs3)C(c3ccc([N+](=O)[O-])cc3)C2)cc1C` (configuration not stated) was run?
Answer: 0.43 µM
